From patent publication US20150105383A1, “HDAC Inhibitors, Alone Or In Combination With PI3K Inhibitors, For Treating Non-Hodgkin's Lymphoma” (Acetylon Pharmaceuticals, Inc., priority 2013, published 2015)
“Also recorded” adds a separate entry of the source.

Experiments:
[1] = tested on: Mino, Jeko1, Granta-519, U2932 and SUDHL16 cells; experiment: MTS cell viability, dose-matrix combination of HDAC6 inhibitor and PI3K inhibitor (Fa-CI, Chou-Talalay); format: cell-based, human; conditions: HDAC6 inhibitor in combination with a PI3K inhibitor (GDC-0941 or GS-1101/CAL-101), 48 hr
Procedure: Human lymphoma cell lines were selected that represented the most common subtypes of NHL. For Mantle Cell Lymphoma (MCL) Mino, Jeko1, and Granta-519 cells were utilized, while U2932 and SUDHL16 cells represented the activated B cell (ABC) and germinal center (GC) subtypes of diffuse large B cell lymphoma (DLBCL), respectively. Briefly, cells were seeded in 384-well plates and treated in quadruplicate in a dose-matrix format with an HDAC6 inhibitor (Compound A, Compound B, or Compound C) in combination with a PI3K inhibitor (GDC-0941 or GS-1101/CAL-101). After incubating these cells for 48 hr, total cell viability was assessed via an MTS assay (Aqueous One, Promega). The fraction affected (Fa) was subsequently determined for each dose combination and the combination index (CI) was assessed using the method of Chou-Talay.

[2] = tested on: Jeko1 or Mino lymphoma cells; experiment: Apoptosis by flow cytometry, statements for the cell lines together; format: cell-based, human; conditions: 4 days; for cellular apoptosis: Compound A or B plus a PI3Ki, lymphoma cells; for apoptosis / percentage of apoptotic cells: Jeko1 or Mino, relative to control cells (DMSO), Compound A or B 2-3 μM, GDC-0941 0.075-2 μM, CAL-101 2 μM
Procedure: Jeko1 (FIG. 4A and FIG. 4B) or Mino (FIG. 4C) lymphoma cells were exposed to drug for 4 days, and apoptosis was assessed by flow cytometry by measuring Annexin V binding and cellular permeability to propidium iodide. The relative fraction of cells that were live, in early apoptosis, in late apoptosis, or dead was then estimated. The cells were treated with DMSO, Compound A or B (2-3 μM), GDC-0941 (0.075-2 μM), or the combination of Compound A or B (2-3 μM) with GDC-0941 (0.075-2 μM) on the induction of apoptosis. Alternatively, cells were treated with DMSO, Compound A or B (2 μM), CAL-101 (2 μM), or the combination of Compound A or B (2 μM) with CAL-101 (2 μM) before measuring induction of apoptosis.

[3] = tested on: Jeko1, Mino or Granta-519 lymphoma cells; experiment: Cell cycle distribution by flow cytometry, statements for all cell lines together; format: cell-based, human; conditions: Compound A or B 2 μM and/or PI3K inhibitor, 4 days
Procedure: The relative fraction of cells in each stage of the cell cycle (G0/G1, S, and G2/M), as well as the fraction of dead cells (Sub G1) was then estimated. Cells were treated with DMSO, Compound A or B (2 μM), GDC-0941 (0.075-0.5 μM), or the combination of Compound A or B (2 μM) with GDC-0941 (0.075-0.5 μM) on cell cycle inhibition. Alternatively, cells were treated with DMSO, Compound A or B (2 μM), CAL-101 (1-2 μM), or the combination of Compound A or B (2 μM) with CAL-101 (1-2 μM) before measuring effects on cell cycle inhibition.

[4] = relative to start of dosing; GDC-0941 100 mg/kg PO QD, Compound A 30 mg/kg IP QD; five days per week for 3 cycles
Procedure: Percent body weight change was determined relative to the start of dosing, and the mean change±SD was plotted. All treatments were dosed five days per week for 3 cycles.

O=C(CCCCCCNC(=O)c1cnc(N(c2ccccc2)c2ccccc2)nc1)NO [Compound A, 2-(diphenylamino)-N-(7-(hydroxyamino)-7-oxoheptyl) pyrimidine-5-carboxamide]
synergy in decreasing lymphoma cell viability [1]: synergistic decreases in lymphoma cell viability | cellular apoptosis [2]: synergistic increases in cellular apoptosis | apoptosis / percentage of apoptotic cells [2]: small increase in apoptosis relative to control cells | cell cycle progression [3]: decreased cell cycle progression

O=C(NO)c1cnc(NC2(c3cccc(F)c3)CCCCC2)nc1 [Compound C, 2-((1-(3-fluorophenyl)cyclohexyl)amino)-N-hydroxypyrimidine-5-carboxamide]
synergy in decreasing lymphoma cell viability [1]: synergistic decreases in lymphoma cell viability

O=C(CCCCCCNC(=O)c1cnc(N(c2ccccc2)c2ccccc2Cl)nc1)NO [Compound B, 2-((2-chlorophenyl)(phenyl)amino)-N-(7-(hydroxyamino)-7-oxoheptyl)pyrimidine-5-carboxamide]
synergy in decreasing lymphoma cell viability [1]: synergistic decreases in lymphoma cell viability | cellular apoptosis [2]: synergistic increases in cellular apoptosis | apoptosis / percentage of apoptotic cells [2]: small increase in apoptosis relative to control cells | cell cycle progression [3]: decreased cell cycle progression

CS(=O)(=O)N1CCN(Cc2cc3nc(-c4cccc5[nH]ncc45)nc(N4CCOCC4)c3s2)CC1 [GDC-0941, 2-(1H-indazol-4-yl)-6-(4-methanesulfonyl-piperazin-1-ylmehtyl)-4-morpholin-4-yl-thienol[3,2-d]pyrimidine]
apoptosis / percentage of apoptotic cells [2]: did not result in increased cell death | body weight change [4]: complete recovery after minimal body weight loss; also recorded: low level body weight loss was recovered by the end of the treatment period
